Where two headings read alike, the source gives them in different places. Where no end group is shown, it is not given here.
Assays:
[1] = tested on: chick chorioallantoic membrane (CAM) angiogenesis; experiment: Chick chorioallantoic membrane (CAM) angiogenesis assay; type: in vivo, chicken; details: for Angiogenic response (% inhibition): relative to control gels, mean ± SD; for activity in the CAM assay: in vivo
Procedure: Fertilized Leghorn chicken eggs were obtained from Ramona Duck farm (Westminster, Calif.). At day 3 of development, the embryos were placed on 100 mm petri dishes. Assays were performed as previously described (Iruela-Arispe et al., 1999). […] Peptides were filtered on Centricon P100 prior to their analysis on the CAM assays to eliminate traces of endotoxin. Pellets were applied to the outer ⅓ of the CAM, and the assay was performed for 24 h. Detection of capillary growth was done by injection of FITC-dextran in the bloodstream and observation of the pellets under a fluorescent inverted microscope. Positive controls (growth factors and vehicle), as well as negative controls (vehicle alone) were placed in the same CAM and used as reference of 100% stimulation or baseline inhibition (0%), and response to the peptides was determined according to these internal controls. Assays were performed in duplicate in each CAM and in four independent CAMs (total of 8 pellets).

BAE cells [2] = details: added in solution
Procedure: (§5) Briefly, 100 μl of a 5×10^4 cell/ml suspension of BAE cells were seeded in triplicate into 96 well tissue culture plate in DMEM medium containing 1% FCS, 10 ng/ml of FGF2 and peptides at 1-40 μM concentrations. Cells were incubated for 72 h, and proliferation was measured using the Celltiter tetrazolium assay (Promega). […] Proliferation was determined at 72 h, and is presented as a percent of the control, mean±S.D., n=3 for experimental points and n=6 for control. […] FIG. 19E: HDME cell proliferation in MCDB growth medium with 5% FCS was determined in the presence of 10 ng/ml FGF2 and the indicated concentrations of TSP1 added in the medium (Δ) or immobilized on the substrate (●) or in wells coated with the indicated concentrations of peptide 678 (●).
(§6) Cell proliferation was measured using the Cell-Titer colorimetric assay (Promega) as previously described (Vogel et al., 1993). A 100 μl volume of BAE cell suspension at 50,000 cells/ml in DMEM containing 1% FBS and supplemented with 10 ng/ml FGF2 was plated in triplicate in 96 well tissue culture plates either in the presence of peptides in solution or in wells that were pre-coated with 100 μl of the peptides at 40° C. overnight and aspirated just before adding cells. Cells were grown for 72 hours at 37° C. in a humidified incubator with 5% CO2. […] HDME cell proliferation was measured in MCDB growth medium without heparin, VEGF, or FGF2.

OH1 SCLC cells = type: cell-based, human; details: soluble
Procedure: Net, proliferation was determined by the CellTiter assay (Promega) and is presented as mean±SD, n=3. […] The cells were fixed and photographed using Nomarski optics. Bar=100 μm. […] Panel E: α3β1 Integrin ligands cooperate with EGF to inhibit OH1 cell proliferation. […] Net proliferation is presented as a percent of the -EGF control (mean±SD, n=3 for treated groups and n=6 for control groups).
Proteins and peptides were immobilized on Nunc Maxisorp 96 well plates by overnight incubation with the proteins or peptides dissolved in 50 μl of sterile Dulbecco's PBS. The supernatant fluid was removed, and the wells were incubated for 30 min. in DPBS containing 1% BSA. OH1 cells (1×10^4/well) were added in RPMI containing 15% FCS and incubated for 72 h at 37° in 5% CO2. For assessing inhibition by soluble proteins or peptides, OH1 cells were grown in suspension in Nunclon 96 well tissue culture plates using the same medium.

[3] = tested on: MDA-MB-435 breast carcinoma cells; experiment: Inhibition of MDA-MB-435 cell adhesion to immobilized peptide 678 (microscopic adhesion assay); type: cell-based, human
Procedure: (§1) Adhesion assays of cells other than small cell lung carcinoma (SCLC)-Adhesion was measured on polystyrene or glass substrates coated with peptides or proteins as previously described (Guo et al., 1992). Peptides dissolved in PBS at 0.4 to 50 μM were incubated in polystyrene microliter plate wells overnight at 4° C. The wells were washed 3 times with distilled water. Adsorbed peptide was quantified using the BCA assay (Pierce Chemical) measuring absorbance at 570 and 630 nm as described by the supplier's protocol. The assay for adsorption was calibrated using purified peptide in solution as a standard. After blocking with 1% BSA in Dulbecco's PBS, adhesion assays were performed by adding cells suspended in DMEM (BAE cells) or medium 199 (human cells) containing 1 mg/ml BSA. Cell attachment and spreading was quantified microscopically.

BAE cells [4] = tested on: BAE cells
Procedure: Direct adhesion of BAE cells to the adsorbed peptides or uncoated substrate (control) are presented as mean±SD, n=3. […] Two flasks of BAE cells were grown to confluence. One flask was harvested and replated in fresh medium at 25% confluency. Fresh medium was added at the same time to the second flask. After 16 h, cells from both flasks were dissociated using EDTA and adhesion was measured on substrates coated with 40 μg/ml TSP1, 10 μg/ml vitronectin, 20 μg/ml plasma fibronectin, or 5 μg/ml type I collagen. The percent spread cells after 60 min is presented as mean±SD, n=3 for a representative experiment.

MDA-MB-435 cells = experiment: MDA-MB-435 cell chemotaxis in modified Boyden chambers; type: cell-based, human
Procedure: FIGS. 10A and 10B display the measurement of MDA-MB-435 cell chemotaxis. Panel A: Dose-dependence for stimulation of MDA-MB-435 cell motility by peptide 678 added to the lower well of a modified Boyden chamber. Cells migrated to the lower surface of an 8 μm pore polycarbonate filter were quantified microscopically after 7 h, mean±SD, n=3 for a representative experiment. […] Chemotaxis of untreated cells (striped bars) or cells treated with 10 nM IGF1 in the upper chamber (solid bars) was determined after 7 h and is presented as mean±S.D., n=3.

BAE cells [5] = experiment: Scratch wound repair of BAE cells; type: cell-based, bovine; details: cells arrested using 5-fluorouracil; 24 h
Procedure: BAE cells were seeded at a density of 2×10^5 cells/well of 6 well tissue culture plates in complete growth medium supplemented with 10% FBS. After the cells formed a confluent cobblestone, cells were arrested using 10 μg/ml 5-fluorouracil for 48 h. Scrape wounds of 2 mm, width were made in the wells, and the cells were further incubated with medium containing 10% FBS, 10 μg/ml 5 fluorouracil and peptides 678, 709, or 690. Measurements of the distance between the wound margins were taken at 0 and 24 h, and the net migration is expressed as mean±SEM for triplicates.
The in vitro wound healing assay used was a slight modification of that described by Joyce et al. (Joyce et al., 1989). A confluent monolayer of BAE cells pretreated with 10 μg/ml 5-fluorouracil for […] were used in this assay. […] Mitosis of the BAE cells in the monolayers was inhibited by addition of 5-fluorouracil, so that the rate of wound closure was due solely to the migration of cells into the wound sites. The distances between the wound margins were measured as soon as the wound was made and 24 hours later using a grid incorporated into the eye piece of the microscope. All data represent the results obtained from three independent scratch wounds for each peptide tested.

HUVEC = HUVEC spreading on coated substrates; type: cell-based, human; details: data not shown
Procedure: FIGS. 14A, 14B and 14C display α3β1 and αvβ3 integrin-mediated spreading of endothelial cells on thrombospondin-1. […] Results are expressed as percent of the response for untreated cells, mean±S.D., n=3.
as §1

HDME cells [6] = experiment: HDME cell spreading on coated substrates; type: cell-based, human
Procedure: Spreading was determined microscopically for cells with no additions, in the presence of 10 μM peptide 678, or in the presence of 30 μM of the control peptide 690. Results are presented as mean±SD, n=3. […] The percent spread cells was determined at 60 min.
as §1

H345 SCLC cells = experiment: SCLC cell adhesion to extracellular matrix proteins, H345; type: cell-based, human
Procedure: (§2) For adhesion assays of SCLC, these cells were washed once with RPMI 1640 and centrifuged at 400×g for 3 min. The pellet was suspended in 2.5 mM EDTA in PBS, pH 7.4 and incubated for 10 min at 37° C. After trituration three times and centrifugation, the cells were resuspended in RPMI 1640 containing 0.1% BSA (Sigma Co. St Louis, Mo.).
(§3) Adhesion of SCLC cells to extracellular matrix proteins. Extracellular matrix proteins or peptides in Dulbecco's PBS were adsorbed onto polystyrene by incubating overnight at 4° C. […] The supernatant fluid was removed, and the dishes were incubated with Tris-gelatin (ICN) (50 mM Tris-HCl, 110 mM NaCl, 5 mM CaCl2, 0.1 mM phenylmethylsulfonyl fluoride, 0.2% gelatin and 0.02% NaN3, pH 7.8) or Dulbeccos PBS with 1% BSA, as indicated, for 30 min to minimize nonspecific adhesion. The disks were washed twice with cold PBS, pH 7.2 and overlayed with dissociated SCLC cells prepared as described above at a density of 2.5×10^5/cm^2.
(§4) For inhibition studies with SCLC cells, inhibitors or antibodies were added and incubated with SCLC cells at the indicated concentrations. After incubation for 60-90 min at 37° C., the disks were washed by dipping six times in PBS, pH 7.2, fixed with 1% glutaraldehyde in PBS, pH 7.2, and stained with Diff-Quik. Attached cells were counted microscopically.

H69 SCLC cells = experiment: SCLC cell adhesion to extracellular matrix proteins, H69; type: cell-based, human
Procedure: as §2, §3, §4

HDME cells [7] = experiment: HDME cell proliferation; type: cell-based, human
Procedure: as §5, §6

N417 SCLC cells = experiment: SCLC cell adhesion to extracellular matrix proteins, N417; type: cell-based, human
Procedure: as §2, §3, §4

[8] = Table 3, 5 μM peptide 678, read-out: IC50 (μM), inhibition of MDA-MB-435 cell adhesion to immobilized peptide 678
[9] = microscopic adhesion assay, polystyrene coated with 5 μM peptide 678, peptides in solution, read-out: Inhibition of peptide 678 (IC50)
[10] = cells harvested from a confluent monolayer

For FQGVLQAVRFVF [Peptide 686], the “Angiogenic response (% inhibition)” value ([1]; 5 μM peptide) was 3 ± 4%, the “Angiogenic response (% inhibition)” value ([1]; 10 μM peptide) was 4 ± 6% and the “Angiogenic response (% inhibition)” value ([1]; 20 μM peptide) was 15 ± 7%. The “activity in the CAM assay” value [1] was “reduced activity”, the “inhibition of BAE cell proliferation” value (BAE cells [2]) was “inactive” and the “inhibition of OH1 cell proliferation” value (OH1 SCLC cells) was “inactive”. It also gave an IC50 [3, 8] of over 300 µM and an IC50 [3, 9] of over 300 µM.
FQGVLQNVAFVF [Peptide 690] was tested, and the “Angiogenic response (% inhibition)” value ([1]; 5 μM peptide) was 3 ± 3%, the “Angiogenic response (% inhibition)” value ([1]; 10 μM peptide) was 5 ± 3% and the “Angiogenic response (% inhibition)” value ([1]; 20 μM peptide) was 2 ± 5%. The “activity in the CAM assay” value [1] was “inactive”, the “inhibition of density-dependent BAE spreading on intact TSP1 and the TSP1 peptide” value (BAE cells [4]; peptide added in solution) was “not significantly inhibited” and the “endothelial cell attachment on immobilized peptide” value (BAE cells [4]; peptides adsorbed at 10 μM (FIG. 11A)) was “not”. For the same substance, the “stimulation of chemotaxis” value (MDA-MB-435 cells) was “inactive”, the IC50 [3, 8] was over 300 µM and the IC50 [3, 9] was over 300 µM. For the same substance, the “inhibition of BAE cell migration into the wound” value (BAE cells [5]) was “did not inhibit”.
In the case of “TSP1: calcium replete thrombospondin-1 purified from human platelets”, the “percent spread HUVEC on immobilized substrate” value (HUVEC; confluent cells) is reported as 41±5%, the “percent spread HUVEC on immobilized substrate” value (HUVEC; sparse cultures) is reported as 46±7% and the “percent spread HDME cells on immobilized substrate” value (HDME cells [6]; cells from sparse culture) is reported as 29%. The “percent spread HDME cells on immobilized substrate” value (HDME cells [6]; [10]) was 6%, the “percent spread BAE cells on substrate” value (BAE cells [4]; [10]) was “less than 10%” and the SCLC cell adhesion (H345 SCLC cells; 6.2 μg/ml) was 1 ± 1 cells/mm2. It also gave an SCLC cell adhesion (H345 SCLC cells; 12.5 μg/ml) of 7 ± 1 cells/mm2, an SCLC cell adhesion (H345 SCLC cells; 25 μg/ml) of 124 ± 17 cells/mm2 and an SCLC cell adhesion (H345 SCLC cells; 50 μg/ml) of 165 ± 6 cells/mm2. It also gave an SCLC cell adhesion (H69 SCLC cells; 12.5 μg/ml) of 46 ± 8 cells/mm2, an SCLC cell adhesion (H69 SCLC cells; 25 μg/ml) of 94 ± 6 cells/mm2 and an SCLC cell adhesion (H69 SCLC cells; 50 μg/ml) of 110 ± 14 cells/mm2. For the same substance, the SCLC cell adhesion (H69 SCLC cells; substrate coated at 6.2 μg/ml, mean ± S.D., n = 3) was 6 ± 1 cells/mm2, the “HDME cell proliferation after plating on immobilized substance” value (HDME cells [7]) was “enhancement” and the SCLC cell adhesion (N417 SCLC cells; 6.2 μg/ml) was 15 ± 2 cells/mm2. For the same substance, the SCLC cell adhesion (N417 SCLC cells; 12.5 μg/ml) was 30 ± 4 cells/mm2, the SCLC cell adhesion (N417 SCLC cells; 25 μg/ml) was 48 ± 4 cells/mm2 and the SCLC cell adhesion (N417 SCLC cells; 50 μg/ml) was 55 ± 10 cells/mm2.
For ri-FQGVLQNVRFVF [Peptide 709], the “Angiogenic response (% inhibition)” value ([1]; 5 μM peptide) was 5 ± 4%, the “Angiogenic response (% inhibition)” value ([1]; 10 μM peptide) was 25 ± 13% and the “Angiogenic response (% inhibition)” value ([1]; 20 μM peptide) was 39 ± 13%. The “activity in the CAM assay” value [1] was “enhanced activity” and the “inhibition of BAE cell migration into the wound” value (BAE cells [5]) was “dose-dependent inhibitor”.

Source: US8114406B2, “Peptides and their utility in modulation of behavior of cells expressing α3β1 integrins” (The United States of America as represented by the …, priority 1999, dated 2012)
